Where “and” joins values, the source holds several entries; their conditions need not be identical. Equal entries are not always repeated. Where two headings read alike, the source gives them in different places.
Columns and labels:
[1] = Sample stability of DM1-related impurities with DS-DM1-deJ591 in the autosampler (Hisep RP-HPLC)
Method: The sample was analyzed at times t=0 h, 12 h, and 24 h. Sample stability was determined by comparing the area percent (area %) values of the stored sample to that of the initially-prepared solution (t=0 h).

[2] = Lyophilized standard stocks reconstituted and analyzed by Hisep RP-HPLC (monomer to dimer conversion); type: physicochemical; conditions: for Dimer area observed / Monomer area observed: single injections
Method: All vials contained a total of 15 nmol. Two vials of each standard were reconstituted by adding 150 μL of 50% acetonitrile/0.01% TFA to make a 100 μM stock solution; the remaining vials were reconstituted with 300 μL to make 50 μM stocks. The stocks were further diluted to the working concentration of 5 μm and analyzed. […] The stability of these standards were monitored over time.

[3] = 50 μM stock - lyophilized, average per vial
[4] = 100 μM stock - lyophilized, average per vial
[5] = 100 μM stock - lyophilized, vials 1 and 2

Structure (SMILES) | Average peak area ([1]; t = 0 h) | Average peak area ([1]; t = 12 h) | Average peak area ([1]; t = 24 h) | % remaining area counts relative to t = 0 h (12 h) [%] | % remaining area counts relative to t = 0 h (24 h) [%] | DM1 monomer to dimer conversion after lyophilization ([2]; 15 nmol vials lyophilized, reconstituted in 50% acetonitrile/0.01% TFA to 100 μM or 50 μM, diluted to 5 μM) | Dimer area observed, Average [2, 3] | Monomer area observed, Average [2, 3] | Dimer area observed ([2]; 50 μM stock - lyophilized) | Monomer area observed ([2]; 50 μM stock - lyophilized, vials 1 and 2) | Dimer area observed, Average [2, 4] | Monomer area observed, Average [2, 4] | Dimer area observed [2, 5] | Monomer area observed [2, 5] | Monomer area observed, Average ([2]; 100 μM stock - untreated) | Monomer area observed ([2]; 100 μM stock - untreated)
COc1cc2cc(c1Cl)N(C)C(=O)CC(OC(=O)C(C)N(C)CC(=O)CCSSC(C)CCC(=O)O)C1(C)OC1C(C)C1CC(O)(NC(=O)O1)C(OC)C=CC=C(C)C2 (stereo not shown) [DM1-TPA adduct, DM1-thiopentanoic acid adduct] | 246302 | 245410 | 245126 | – | – | – | – | – | – | – | – | – | – | – | – | –
CC(CCC(=O)O)SSc1ccccn1 (stereo not shown) [PPA, 4-(2-pyridyldithio) pentanoic acid] | 15881 | 15377 | 15595 | 96.83 | 98.20 | – | – | – | – | – | – | – | – | – | – | –
COc1cc2cc(c1Cl)N(C)C(=O)C[C@H](OC(=O)[C@H](C)N(C)C(=O)CCS)[C@]1(C)O[C@H]1[C@H](C)[C@@H]1C[C@@](O)(NC(=O)O1)[C@H](OC)/C=C/C=C(\C)C2 [DM1 monomer] | 223667 | 217293 | 214265 | – | – | significant DM1 monomer→dimer conversion | 10669 | 476235 and 412633 | 10097 and 10809 and 11100 | 476970 and 475075 and 476660 and 415292 and 411974 and 410632 | 10086 and 10158 | 391081 and 417523 | 10508 and 8635 and 11114 and 10029 and 10666 and 9780 | 392043 and 391526 and 389675 and 418902 and 418204 and 415463 | 459843 | 459407 and 460238 and 459885
S=c1cccc[nH]1 [mercaptopyridine] | 15446 | 15654 | 15620 | – | – | – | – | – | – | – | – | – | – | – | – | –

Source: patent US20060073528A1, “Measurement methods” (priority 2004, published 2006)
